{"source": "paper PMC4457840", "about": "“Differential Inhibition of Signal Peptide Peptidase Family Members by Established γ-Secretase Inhibitors” (PLoS ONE, 2015)", "key": {"SPPL2b": {"biological_target": "T1, SPPL2b (Homo sapiens, UniProt Q8TCT7)", "T1 construct": "expressed in transfected cells; host or cells: HEK 293T", "T1 sequence (Q8TCT7 26-592)": "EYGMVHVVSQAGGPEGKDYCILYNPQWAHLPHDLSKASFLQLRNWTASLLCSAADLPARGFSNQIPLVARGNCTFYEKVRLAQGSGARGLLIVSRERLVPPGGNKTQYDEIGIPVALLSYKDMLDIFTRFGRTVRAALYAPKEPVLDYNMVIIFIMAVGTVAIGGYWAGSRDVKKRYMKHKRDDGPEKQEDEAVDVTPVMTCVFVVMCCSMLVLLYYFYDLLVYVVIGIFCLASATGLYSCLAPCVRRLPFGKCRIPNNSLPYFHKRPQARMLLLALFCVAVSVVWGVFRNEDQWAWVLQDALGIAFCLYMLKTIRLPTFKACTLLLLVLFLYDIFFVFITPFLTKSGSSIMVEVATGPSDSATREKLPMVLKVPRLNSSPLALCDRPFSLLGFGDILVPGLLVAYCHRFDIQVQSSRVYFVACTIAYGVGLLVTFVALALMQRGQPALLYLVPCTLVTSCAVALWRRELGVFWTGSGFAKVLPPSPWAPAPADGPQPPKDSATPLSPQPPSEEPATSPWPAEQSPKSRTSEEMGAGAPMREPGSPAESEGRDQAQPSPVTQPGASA", "assay": "FBA/SPPL2b co-transfected HEK 293T cell cleavage assay (Aβ ELISA, Western blot, IP/MS)", "type": "cell-based", "source_text": "(§1) Expression constructs in pcDNA6 for COOH-terminal FLAG (DYKDDDDK) and strep (WSHPQFEK) tagged SPPL2a, SPPL2b, hSPP and pSPP were generated as previously described. Untagged versions of all enzymes were also made and ligated into the pAG3 vector. Substrates (Fig 1) were designed as follows: FLAG-BRI2_1-81- Aβ1-25/K16A (FBA). The K16A mutation was incorporated to prevent potential α-secretase cleavage that would preclude ELISA based detection of the released COOH-terminal fragment. The substrate DNA was cloned into the expression vector pcDNA6. Constructs were confirmed by DNA sequencing. The overexpression of substrates was performed by transiently transfecting human embryonic kidney (HEK 293T) cells with or without SPP/SPPL vectors. Cells were grown in DMEM media supplemented with Hyclone 10% fetal bovine serum (GE, Logan, Utah, USA) and 1% penicillin/streptomycin (Life Technologies, Grand Island, NY, USA). Briefly, 2.7 μg DNA was applied to a 75% confluent 6 well plate (Corning, Tewksbury, MA, USA) using the polycation polyethylenimine (PEI) transfection method. Inhibitor testing experiments were conducted in 48 well plates with appropriately adjusted amounts of DNA and PEI and incubated 12–16 hours, after which the growth medium was replaced with fresh medium. DMSO (Sigma, St. Louis, MO, USA) and GSIs were added at the appropriate concentration. The GSIs, L685,458 and Compound W were purchased from Tocris (Tocris, Bristol, UK). (Z-LL)2 ketone, Compound E, DAPT, GSI II were purchased from Calbiochem (Merck Millipore, Billerica, MA, USA). LY-411,575 was synthesized by A. Fauq at the Mayo Clinic Chemical Core. Twenty-four hours later, the medium was collected for assay by ELISA and MS. A20 cells (TIB-208) (ATCC, Manassas, VA, USA) were cultured in RPMI-1640 medium (ATCC) supplied with 10% fetal bovine serum, 1% penicillin/streptomycin and 0.05 mM 2-mercaptoethanol (Life Technologies). At the density of 5x10^5 cells/ml, A20 cells were spun down at 1000 g for 2 min and resuspended in fresh medium supplied with DMSO or GSIs and incubated for 16 hr.\n(§2) Sandwich ELISAs used for Aβ detection were performed as previously described. Briefly, Aβ and Aβ adducts with substrate TMD in conditioned media was captured with Ab5 antibody (human Aβ1–16 specific) and detected with horseradish peroxidase mAb 4G8 (Covance, Princeton, NJ, USA). Synthetic Aβ1–40 was used as standard. All ELISAs were developed with TMB substrate (KPL, Gaithersburg, Maryland, USA). Bis-Tris precast gels (Biorad, Hercules, CA, USA) were used for all SDS-PAGE. Monoclonal anti-FLAG M2 antibody (Sigma) and Aβ1–16 antibody 6E10 (Covance) were used for Western blotting. Antisera against SPPL2a, SPPL2b, hSPP and pSPP were generated as previously described and were used at dilution of 1:1000 for Western blotting. Anti-CD74 In-1 antibody (BD Bioscience, San Jose, CA, USA) was used for A20 cell lysate Western blotting at dilution of 1:1000.\n(§3) Immunoprecipitation and mass spectrometry of xAβ1–25 in conditioned media were performed as previously described. In this study, 10 ml conditioned media were used for each experiment. ICDs were immunoprecipitated with anti-FLAG M2 magnetic beads. Cells from 10 cm dished treated with DMSO or 20 μM LY-411,575 were used for each test."}, "hSPP": {"biological_target": "T2, hSPP (Homo sapiens, UniProt Q8TCT9)", "T2 construct": "expressed in transfected cells; host or cells: HEK 293T", "T2 sequence (Q8TCT9 1-377)": "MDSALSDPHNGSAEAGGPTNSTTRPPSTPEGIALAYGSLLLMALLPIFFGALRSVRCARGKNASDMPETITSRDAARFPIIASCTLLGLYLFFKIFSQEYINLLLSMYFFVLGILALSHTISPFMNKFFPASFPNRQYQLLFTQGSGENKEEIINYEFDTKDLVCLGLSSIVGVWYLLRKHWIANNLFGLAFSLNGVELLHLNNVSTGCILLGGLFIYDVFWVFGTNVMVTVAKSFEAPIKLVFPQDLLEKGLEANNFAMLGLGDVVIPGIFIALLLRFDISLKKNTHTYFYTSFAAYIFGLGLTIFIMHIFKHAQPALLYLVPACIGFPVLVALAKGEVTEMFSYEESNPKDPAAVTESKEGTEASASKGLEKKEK", "assay": "FBA/hSPP co-transfected HEK 293T cell cleavage assay (Aβ ELISA, Western blot, IP/MS)", "type": "cell-based", "details": "for IC50: HEK cells, 24 h, xAβ1-25/K16A by Aβ ELISA, mean ± standard error, read-out: IC50 on FBA/SPPL co-transfected cells", "source_text": "as §1, §2, §3"}, "pSPP": {"biological_target": "pSPP (Plasmodium falciparum, UniProt Q8IKQ9)", "sequence (Q8IKQ9 entry or part of it)": "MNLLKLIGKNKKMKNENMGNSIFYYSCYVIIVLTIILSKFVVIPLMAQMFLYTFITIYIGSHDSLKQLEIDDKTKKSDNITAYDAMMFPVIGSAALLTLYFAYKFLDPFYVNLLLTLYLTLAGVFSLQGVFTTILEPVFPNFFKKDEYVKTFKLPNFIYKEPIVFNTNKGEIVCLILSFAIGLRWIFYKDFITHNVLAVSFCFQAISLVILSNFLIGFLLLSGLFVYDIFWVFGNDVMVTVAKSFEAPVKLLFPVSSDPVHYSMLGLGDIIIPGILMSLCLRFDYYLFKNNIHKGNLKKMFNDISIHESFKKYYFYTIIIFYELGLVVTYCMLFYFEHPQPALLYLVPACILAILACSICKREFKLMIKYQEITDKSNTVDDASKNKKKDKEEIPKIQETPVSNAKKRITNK", "assay": "FBA/pSPP co-transfected HEK 293T cell cleavage assay (Aβ ELISA, Western blot, IP/MS)", "type": "cell-based, human", "details": "for inhibition of xAβ1-25/K16A secretion (in words): 25 μM, ELISA", "source_text": "as §1, §2, §3"}, "SPPL2a [1]": {"biological_target": "T3, SPPL2a (Homo sapiens, UniProt Q8TCT8)", "T3 construct": "expressed in transfected cells; host or cells: HEK 293T", "T3 sequence (Q8TCT8 26-520)": "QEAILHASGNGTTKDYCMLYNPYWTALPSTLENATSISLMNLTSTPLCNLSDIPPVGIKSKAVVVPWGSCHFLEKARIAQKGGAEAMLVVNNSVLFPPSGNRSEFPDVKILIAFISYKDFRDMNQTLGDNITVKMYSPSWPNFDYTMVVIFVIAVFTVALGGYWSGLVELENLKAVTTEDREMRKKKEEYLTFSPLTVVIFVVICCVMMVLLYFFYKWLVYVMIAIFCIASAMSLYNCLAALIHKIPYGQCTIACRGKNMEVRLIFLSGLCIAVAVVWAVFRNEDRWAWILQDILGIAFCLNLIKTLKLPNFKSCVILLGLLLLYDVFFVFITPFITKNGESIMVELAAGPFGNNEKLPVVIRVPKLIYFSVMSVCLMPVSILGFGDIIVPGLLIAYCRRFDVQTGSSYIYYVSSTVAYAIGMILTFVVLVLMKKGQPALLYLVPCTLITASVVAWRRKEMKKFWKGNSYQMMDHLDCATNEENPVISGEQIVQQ", "assay": "FBA/SPPL2a co-transfected HEK 293T cell cleavage assay (Aβ ELISA, Western blot)", "type": "cell-based", "source_text": "as §1, §2"}, "SPPL2a [2]": {"tested_on": "T4, SPPL2a", "T4 construct": "endogenous SPPL2a cleavage of CD74 in a murine B-Cell line; host or cells: A20 mouse B lymphocyte cells", "assay": "Endogenous CD74 NTF P8 turnover in non-overexpressing A20 cells (Western blot, In-1 antibody)", "type": "cell-based, mouse", "method": "as §1, with “Untagged” for “Expression constructs in pcDNA6 for COOH-terminal FLAG (DYKDDDDK) and strep (WSHPQFEK) tagged SPPL2a, SPPL2b, hSPP and pSPP were generated as previously described. Untagged”\nas §2"}, "SPP": {"tested_on": "SPP", "design": "method as in PMID 15252014, PMID 19337374, PMID 12621027", "details": "cited from earlier work"}, "[3]": {"details": "HEK cells, 24 h, xAβ1-25/K16A by Aβ ELISA, mean ± standard error, read-out: IC50 on FBA/SPPL co-transfected cells"}, "[4]": {"details": "HEK-293T, 25 μM, ELISA, DMSO = 100%, read-out: inhibition of the SPP/SPPLs"}, "[5]": {"details": "number in parenthesis in Table 3"}}, "note": "“Also recorded” adds a separate entry of the source."}
{"smiles": "O=C(O)c1cc(Oc2ccc([N+](=O)[O-])cc2)cc(Oc2ccc([N+](=O)[O-])cc2)c1", "note": "[Comp W, Compound W]", "values": [{"measurement": "inhibition of xAβ1-25/K16A secretion (in words)", "setting": "SPPL2b; 25 μM, ELISA", "result": "does not show inhibition"}, {"measurement": "inhibition of xAβ1-25/K16A secretion (in words)", "setting": "hSPP; 25 μM, ELISA", "result": "does not show inhibition"}, {"measurement": "inhibition of xAβ1-25/K16A secretion (in words)", "setting": "pSPP; pSPP", "result": "does not show inhibition"}, {"measurement": "inhibition of xAβ1-25/K16A secretion (in words)", "setting": "SPPL2a [1]; 25 μM, ELISA", "result": "does not show inhibition"}]}
{"smiles": "C[C@H](NC(=O)Cc1cc(F)cc(F)c1)C(=O)N[C@@H]1C(=O)N(C)c2ccccc2-c2ccccc21", "note": "[DBZ]", "values": [{"measurement": "inhibition of FBA cleavage (10 kD ICD) by Western blot", "setting": "SPPL2b; Fig 3C upper panel", "result": "slightly reduce"}, {"measurement": "inhibition of xAβ1-25/K16A secretion (in words)", "setting": "hSPP; 25 μM, ELISA", "result": "inhibited; also recorded: selectively inhibit hSPP cleavage"}, {"measurement": "inhibition of FBA cleavage by Western blot", "setting": "hSPP; Fig 3C lower panel", "result": "efficiently inhibited"}, {"measurement": "IC50", "setting": "hSPP", "result": "948 ± 93", "unit": "nM"}, {"measurement": "dose response of P8 fragment stabilization (in words)", "setting": "SPPL2a [2]; different doses", "result": "stabilized the P8 fragment in a dose dependent manner; also recorded: much weaker inhibition"}, {"measurement": "concentration at which effect was first seen", "setting": "SPPL2a [2]; dose response", "result": 1, "unit": "µM"}]}
{"smiles": "CC(C)C[C@H](NC(=O)[C@H](Cc1ccccc1)C[C@@H](O)[C@H](Cc1ccccc1)NC(=O)OC(C)(C)C)C(=O)N[C@@H](Cc1ccccc1)C(N)=O", "note": "[L685,458]", "values": [{"measurement": "inhibition of SPP activity", "setting": "SPP", "result": "inhibit the activity of SPP"}, {"measurement": "inhibition of xAβ1-25/K16A secretion (in words)", "setting": "SPPL2b; 25 μM, ELISA", "result": "largely inhibited"}, {"measurement": "IC50", "setting": "SPPL2b; [3]", "result": "876 ± 133", "unit": "nM"}, {"measurement": "inhibition at 25 µM", "setting": "SPPL2b; [4]", "result": "> 90", "unit": "%"}, {"measurement": "rank order of inhibition", "setting": "SPPL2b; [5]", "result": 1}, {"measurement": "inhibition of xAβ1-25/K16A secretion (in words)", "setting": "hSPP; 25 μM, ELISA", "result": "largely inhibited"}, {"measurement": "IC50", "setting": "hSPP", "result": "319 ± 91", "unit": "nM"}, {"measurement": "inhibition at 25 µM", "setting": "hSPP; [4]", "result": "> 90", "unit": "%"}, {"measurement": "rank order of inhibition", "setting": "hSPP; [5]", "result": 2}, {"measurement": "IC50", "setting": "pSPP", "result": "161 ± 97", "unit": "nM"}, {"measurement": "inhibition at 25 µM", "setting": "pSPP; HEK-293T, read-out: inhibition of the SPP/SPPLs", "result": "> 90", "unit": "%"}, {"measurement": "inhibition of xAβ1-25/K16A secretion (in words)", "setting": "pSPP; pSPP", "result": "largely inhibited"}, {"measurement": "rank order of inhibition", "setting": "pSPP; pSPP, number in parenthesis in Table 3", "result": 1}, {"measurement": "inhibition of xAβ1-25/K16A secretion (in words)", "setting": "SPPL2a [1]; 25 μM, ELISA", "result": "largely inhibited"}, {"measurement": "IC50", "setting": "SPPL2a [1]; [3]", "result": "570 ± 90", "unit": "nM"}, {"measurement": "inhibition at 25 µM", "setting": "SPPL2a [1]; [4]", "result": "> 90", "unit": "%"}, {"measurement": "rank order of inhibition", "setting": "SPPL2a [1]; [5]", "result": 3}]}
